# Measurements from US12486255B2, “Modulators of RAS GTPase” (Tosk, Inc., priority 2018, dated 2025).
# Several values for one entry are separate records, joined by “and”; a condition that tells them apart may be missing. Equal entries are not always repeated.
# Tests used:
# [1] = system: flies expressing G12V in their wing; assay: Fly assay, wing phenotype reversal; type: in vivo, Drosophila
# Description: Each wing from mutant flies receiving treatment with either water or compound received a score from two independent scorers according to the scheme outlined in the schematic. The analysis of the scores given to the compound group was compared to the scores given for the control (water) group.
# Embryo preparation. GAL4 virgin ♀ were collected over a period of 3-5 days, then crossed with kRAS G12V (3M) ♂ inside a plastic condo supplied with grape agar containing yeast paste. Flies were acclimated for 2 days and embryos present after a span of 4-5 hours were collected along with the agar plate and incubated for 24 hours. The next day, embryos were washed off the agar plate with Embryo Wash solution (120 mM NaCl, 0.03% Triton X) and resuspended in Embryo Inoculation solution (120 mM NaCl, 420 mM Sucrose, 0.05% Triton X-100). Embryos were counted and diluted to 15 embryos/10 μL. 150 embryos (100 μL) were dispensed into each vial.
# Food-drug admix preparation. Each fly vial contains 1.5 g of fly food in 4 ml water. The quantity of drug needed is calculated for a total of 4 vials, each vial containing 10 μM of Structure 2. This is equivalent to 0.014 mg of Structure 2/vial, for a total of 0.056 mg of Structure 2.
# A stock solution of 0.1 mg/mL Structure 2 in ethanol is prepared. A 500-ml round bottom flask is charged with 6 g of fly food (1.5 g×4), to which is added 20 mL of ethanol, ensuring that the food is entirely covered in solvent. To this heterogeneous solution is added an appropriate amount of Structure 2 stock solution, containing the calculated required quantity, in this case 0.56 mL stock solution.
# The ethanol is evaporated under reduced pressure via a rotary evaporator equipped with a bump trap. The resulting dry food is added to three vials, each containing 1.5 g, so that the experiment is performed in triplicate. The quantity is calculated initially for 4 vials, because some food will be stuck to the walls of the round bottom flask and some is also invariably lost in the bump trap during the solvent evaporation step. Control vials lacking Structure 2 or Structure 3 are also analyzed and undergo the exact same food preparation and solvent extraction procedure.
# Embryo addition to vials. After all the food-drug admix is prepared and added to the respective vials, to each vial is added 4 mL of water and the vial briefly vortexed. To this liquid mixture is added the embryo solution (100 μL), the vials capped and placed in an incubator or fly room.
# Wing mounting and scoring. Flies hatch 10-12 days after the above experimental setup is performed. The resulting adult flies are submerged in a 3:1 70% ethanol:glycerol solution for 24 hours, then wings are dissected with curved Vannas spring scissors (FST #15001-08). The wings are mounted in an 80% glycerol solution on a microscope slide under coverslip seal.
# Pictures of the wings were taken using an Accu-Scope microscope equipped with a digital camera and connected to a laptop containing the Accu-Scope Micrometric SE Premium software. The wings were scored according to the following scoring tree:
# Wing score analysis. After each wing received a score from two independent scorers, the analysis of the scores given to the Structure 2 and 3 groups was compared to the scores given for the control group and was performed using the IBM SPSS software.
# Wings that received a score of 3 or above are considered “reversed”, since their phenotype is closer to WT than to kRAS G12V bearing Drosophila. The findings are plotted in FIG. 9. […]
# SW48 cells = assay: Cytotoxicity assay, CellTiter-Glo 2.0, SW48 cells; type: cell-based; details: SW48, human colon cancer cell line expressing wild type kRAS (EGF receptor mutation); 48 hours
# Method: FIG. 3, panels A-B, illustrates the cytotoxicity of Structure 2 and Structure 3 on SW48 cells. The cytotoxicity of compounds of interest were tested against the human colon cancer cell line SW48 as described in the experimental section. SW48 cells express the wild type kRAS but are driven by an EGF receptor mutation G1255A. Compounds were incubated with cells for 48 hours and the assay was developed using Cell Titer Glo 2.0. IC50 vales were determined using GraphPad Prism 4.
# Compounds were assayed for inhibition of cell proliferation and killing cancer cells. Cytotoxicity assays were conducted according to the following general procedure. SW480, SW48, SW900, SW620 were all maintained in Leibowitz L15 media supplemented with 10% fetal bovine serum and 1% PenStrep and grown in a 37° C. incubator without supplemental CO2. Capan-1 cells were maintained in Iscove's Modified Dulbecco's Medium (ATCC 30-2005) containing 20% fetal bovine serum and 1% PenStrep and grown in a 37° C. incubator containing 5% CO2.
# For dose-response assays, SW480 cells were plated into 96 well plates (1 million/plate, ˜10,000/well, 250 μL media/well). Cells were allowed to settle and adhere to plate bottom overnight Compounds were placed in 500 μL media and mixed. […] Luminescence was read with FLx800 (BioTek Instruments).
smiles,measurement,setting,value
"Cc1nc(-c2ccc(CNC(=O)c3cc(CC(C)C)nn3C)cc2)no1 [Structure 2, 3-isobutyl-1-methyl-N-(4-(5-methyl-1,2,4-oxadiazol-3-yl)benzyl)-1H-pyrazole-5-carboxamide]","Wing score, Scored 1-6, Mean ± SD","[1]; 10 μmolar in fly food, control 1.86 ± 0.62",2.15
same,wing scores compared to the control group,"[1]; Tukey HSD and LSD p<0.001, Mann Whitney p=0.002",significantly different from the control group
same,Reversal Phenotype (%),"[1]; wings with score of 3 or above, Structure 2 at 10 μmolar, control 8.27",24% and 24.31%
same,IC50,SW48 cells,607 nM
